US5824771A, “Cyclic CRF agonists” (The Salk Institute for Biological Studies, priority 1997, dated 1998)
Entries after “also recorded” stand apart in the source; their conditions may differ. Bridge positions count the residues as written; N and C are the ends. Square brackets hold non-standard residues; d marks the D form. Ends that are not written are not given here. Peptide text beside a SMILES is read from it. Nle = CCCC[C@H](N)C(=O)O

Experiments:
[1] = tested on: ACTH and β-endorphin secretion; conditions: background statements; in vitro and in vivo or iv; cited from earlier work
[2] = background statement; cited from earlier work
[3] = background statements; injected peripherally or iv, mammals; cited from earlier work
[4] = Relief of inflammation on administration; format: in vivo; conditions: administration of the peptide

Compound | stimulation of ACTH and β-endorphin secretion / activities, in words [1] | gastric acid production, in words [2] | lowering of blood pressure, in words [3] | relief of inflammation, in words [4]
oCRF: ovine corticotropin releasing factor, a 41-residue amidated peptide; the laboratory Standard (SQEPPISLDLTFHLLREVLEMTKADQLAQQAHSNRKLLDIA-NH2; UniProt P01142 148-188, looked up) | stimulate the secretion of ACTH and β-endorphin; also recorded: stimulate ACTH and β-endorphin-like activities (β-END-Li) in vitro and in vivo | inhibit gastric acid production | substantially lower blood pressure | 
CC[C@H](C)[C@H](NC(=O)[C@@H](NC(=O)[C@H](CC(=O)O)NC(=O)[C@H](CC(C)C)NC(=O)[C@H](CC(C)C)NC(=O)[C@H](CC(C)C)NC(=O)[C@H](CCCNC(=N)N)NC(=O)[C@H](CC(N)=O)NC(=O)[C@H](CC(N)=O)NC(=O)[C@H](C)NC(=O)[C@H](C)NC(=O)[C@H](CCC(N)=O)NC(=O)[C@H](CCC(N)=O)NC(=O)[C@H](CCCCN)NC(=O)[C@H](CCC(=O)O)NC(=O)[C@H](CCCCN)NC(=O)[C@H](CCC(=O)O)NC(=O)[C@H](CCC(N)=O)NC(=O)[C@H](CCCCN)NC(=O)[C@H](CCC(=O)O)NC(=O)[C@@H](NC(=O)[C@H](CCC(=O)O)NC(=O)[C@@H](NC(=O)[C@H](CCSC)NC(=O)[C@H](CCCCN)NC(=O)[C@H](CCCNC(=N)N)NC(=O)[C@H](CC(C)C)NC(=O)[C@H](CC(C)C)NC(=O)[C@H](CCC(=O)O)NC(=O)[C@H](CC(C)C)NC(=O)[C@H](CO)NC(=O)[C@H](CC(C)C)NC(=O)[C@H](CC(=O)O)NC(=O)[C@@H](NC(=O)[C@H](CO)NC(=O)[C@@H](NC(=O)[C@@H]1CCCN1C(=O)[C@@H]1CCCN1C(=O)CNC(=O)[C@@H]1CCC(=O)N1)[C@@H](C)CC)[C@@H](C)CC)[C@@H](C)CC)[C@@H](C)CC)[C@@H](C)O)C(N)=O [sauvagine] | stimulate the secretion of ACTH and β-endorphin | inhibit gastric acid production | lower blood pressure | 
CCCC[C@H](NC(=O)[C@H](CCC(=O)O)NC(=O)[C@@H](NC(=O)[C@H](CCCC)NC(=O)[C@H](CC(N)=O)NC(=O)[C@H](CCCNC(=N)N)NC(=O)[C@H](CC(C)C)NC(=O)[C@H](CC(C)C)NC(=O)[C@H](Cc1c[nH]cn1)NC(=O)[C@@H](Cc1ccccc1)NC(=O)[C@@H](NC(=O)[C@H](CC(C)C)NC(=O)[C@H](CC(=O)O)NC(=O)[C@@H](NC(=O)[C@H](CO)NC(=O)[C@@H](NC(=O)[C@H]1CCCN1C(=O)[C@@H]1CCCN1C(C)=O)[C@@H](C)CC)[C@@H](C)CC)[C@@H](C)O)[C@@H](C)CC)C(=O)N[C@@H](C)C(=O)N[C@@H](CCCNC(=N)N)C(=O)N[C@H](C(=O)N[C@@H](CCC(=O)O)C(=O)N[C@@H](CC(N)=O)C(=O)N[C@@H](CCC(=O)O)C(=O)N[C@@H](CCCNC(=N)N)C(=O)N[C@@H](CCC(=O)O)C(=O)N[C@H]1CCC(=O)NCCCC[C@@H](C(=O)N[C@@H](CC(N)=O)C(=O)N[C@@H](CCCNC(=N)N)C(=O)N[C@@H](CCCCN)C(=O)N[C@@H](Cc2ccc(O)cc2)C(=O)N[C@@H](CC(C)C)C(=O)N[C@@H](CC(=O)O)C(=O)N[C@@H](CCC(=O)O)C(=O)N[C@H](C(N)=O)C(C)C)NC(=O)[C@@H](Cc2c[nH]cn2)NC(=O)[C@H](C)NC1=O)[C@@H](C)CC [Example 8 E, (cyclo 30-33)[Ac-Pro^4, D-Pro^5, D-Phe^12, Nle^18,21, Glu^30, D-His^32, Lys^33]-sucker urotensin(4-41)] (Ac-P[dP]ISIDLT[dF]HLLRN[Nle]IE[Nle]ARIENEREEA[dH]KNRKYLDEV-NH2; lactam 27-30) |  |  |  | relieves inflammation
CCCC[C@H](NC(=O)[C@H](CCC(=O)O)NC(=O)[C@H](CC(C)C)NC(=O)[C@H](CCCC)NC(=O)[C@H](CCC(=O)O)NC(=O)[C@H](CCCNC(=N)N)NC(=O)[C@H](CC(C)C)NC(=O)[C@H](CC(C)C)NC(=O)[C@H](Cc1c[nH]cn1)NC(=O)[C@@H](Cc1ccccc1)NC(=O)[C@@H](NC(=O)[C@H](CC(C)C)NC(=O)[C@H](CC(=O)O)NC(=O)[C@H](CC(C)C)NC(=O)[C@H](CO)NC(=O)[C@@H](NC(=O)[C@H]1CCCN1C(=O)[C@@H]1CCCN1C(C)=O)[C@@H](C)CC)[C@@H](C)O)C(=O)N[C@@H](C)C(=O)N[C@@H](CCCCN)C(=O)N[C@@H](C)C(=O)N[C@@H](CCC(=O)O)C(=O)N[C@@H](CCC(N)=O)C(=O)N[C@@H](CCC(=O)O)C(=O)N[C@@H](C)C(=O)N[C@@H](CCC(=O)O)C(=O)N[C@H]1CCC(=O)NCCCC[C@@H](C(=O)N[C@@H](CC(N)=O)C(=O)N[C@@H](CCCNC(=N)N)C(=O)N[C@@H](CC(C)C)C(=O)N[C@@H](CC(C)C)C(=O)N[C@@H](CC(C)C)C(=O)N[C@@H](CCC(=O)O)C(=O)N[C@@H](CCC(=O)O)C(=O)N[C@@H](C)C(N)=O)NC(=O)[C@@H](Cc2c[nH]cn2)NC(=O)[C@H](C)NC1=O [Example 8 C, (cyclo 30-33)[Ac-Pro^4, D-Pro^5, D-Phe^12, Nle^18,21, Glu^30, D-His^32, Lys^33]-α-helical CRF(4-41)] (Ac-P[dP]ISLDLT[dF]HLLRE[Nle]LE[Nle]AKAEQEAEEA[dH]KNRLLLEEA-NH2; lactam 27-30) |  |  |  | relieves inflammation
CCCC[C@H](NC(=O)[C@H](CCCCN)NC(=O)[C@H](CCCNC(=N)N)NC(=O)[C@H](CC(C)C)NC(=O)[C@H](CC(C)C)NC(=O)[C@H](CCC(=O)O)NC(=O)[C@@H](CC(C)C)NC(=O)[C@H](CO)NC(=O)[C@H](CC(C)C)NC(=O)[C@H](CC(=O)O)NC(=O)[C@@H](NC(=O)[C@H](CO)NC(=O)[C@@H](NC(=O)[C@H]1CCCN1C(=O)[C@@H]1CCCN1C(C)=O)[C@@H](C)CC)[C@@H](C)CC)C(=O)N[C@H](C(=O)N[C@@H](CCC(=O)O)C(=O)N[C@H](C(=O)N[C@@H](CCC(=O)O)C(=O)N[C@@H](CCCCN)C(=O)N[C@@H](CCC(N)=O)C(=O)N[C@@H](CCC(=O)O)C(=O)N[C@@H](CCCCN)C(=O)N[C@@H](CCC(=O)O)C(=O)N[C@@H](CCCCN)C(=O)N[C@@H](CCC(N)=O)C(=O)N[C@H]1CCC(=O)NCCCC[C@@H](C(=O)N[C@@H](CC(N)=O)C(=O)N[C@@H](CCCNC(=N)N)C(=O)N[C@@H](CC(C)C)C(=O)N[C@@H](CC(C)C)C(=O)N[C@@H](CC(C)C)C(=O)N[C@@H](CC(=O)O)C(=O)N[C@H](C(=O)N[C@H](C(N)=O)[C@@H](C)CC)[C@@H](C)O)NC(=O)[C@@H](Cc2c[nH]cn2)NC(=O)[C@H](C)NC1=O)[C@@H](C)CC)[C@@H](C)CC [Example 8 B, (cyclo 29-32)[Ac-Pro^3, D-Pro^4, D-Leu^11, Nle^17, Glu^29, D-His^31, Lys^32]-sauvagine(3-40)] (Ac-P[dP]ISIDLS[dL]ELLRK[Nle]IEIEKQEKEKQEA[dH]KNRLLLDTI-NH2; lactam 27-30) |  |  |  | relieves inflammation
r/hCRF: rat/human CRF, a homologous amidated hentetracontapeptide; alternate standard (SEEPPISLDLTFHLLREVLEMARAEQLAQQAHSNRKLMEII-NH2; UniProt P06850 154-194, looked up) | stimulate ACTH and β-endorphin-like activities (β-END-Li) in vitro and in vivo | inhibit gastric acid production | substantially lower blood pressure | 
